Assay results published in patent publication US6849732B2, “Metalloproteinase inhibitors, pharmaceutical compositions containing them and their pharmaceutical uses, and methods and intermediates useful for their preparation” (Agouron Pharmaceuticals, Inc., priority 1995, dated 2005).
Structures can show the parent of a compound that is named as a salt.

Assays:
gelatinase A (HG72kD) = target: T1, gelatinase A (HG72kD) (Homo sapiens, UniProt P08253); test: MCA fluorogenic enzyme assay, competitive inhibition analysis (Ki,app), gelatinase A; format: biochemical; conditions: MCA peptide substrate, 37° C., pH 7.5, read-out: Enzyme Inhibition Constants (K1) HG72kD
T1 sequence (P08253 110-660): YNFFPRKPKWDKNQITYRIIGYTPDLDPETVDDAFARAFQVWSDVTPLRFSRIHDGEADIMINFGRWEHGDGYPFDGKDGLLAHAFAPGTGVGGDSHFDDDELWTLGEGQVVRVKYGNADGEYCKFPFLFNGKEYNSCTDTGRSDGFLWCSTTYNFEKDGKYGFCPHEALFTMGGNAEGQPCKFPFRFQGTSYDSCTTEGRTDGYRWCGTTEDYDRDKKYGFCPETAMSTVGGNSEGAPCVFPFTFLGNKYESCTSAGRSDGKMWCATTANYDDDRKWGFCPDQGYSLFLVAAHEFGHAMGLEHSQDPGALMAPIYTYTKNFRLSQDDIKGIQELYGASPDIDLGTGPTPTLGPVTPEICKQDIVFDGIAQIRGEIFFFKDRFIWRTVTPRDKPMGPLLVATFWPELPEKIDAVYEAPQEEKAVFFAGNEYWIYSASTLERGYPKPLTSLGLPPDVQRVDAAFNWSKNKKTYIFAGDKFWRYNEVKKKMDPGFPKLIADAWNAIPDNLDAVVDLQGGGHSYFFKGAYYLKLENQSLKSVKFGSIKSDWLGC

Coll3 = Coll3 (Homo sapiens, UniProt P45452); test: MCA fluorogenic enzyme assay, competitive inhibition analysis (Ki,app), Coll3; format: biochemical; conditions: MCA peptide substrate, 37° C., pH 7.5, read-out: Enzyme Inhibition Constants (K1) Coll3
matrilysin (Matr.) = target: T2, matrilysin (Matr.) (Homo sapiens, UniProt P09237); test: MCA fluorogenic enzyme assay, competitive inhibition analysis (Ki,app), matrilysin; format: biochemical; conditions: MCA peptide substrate, 37° C., pH 7.5, read-out: Enzyme Inhibition Constants (K1) Matr.
T2 sequence (P09237 95-267): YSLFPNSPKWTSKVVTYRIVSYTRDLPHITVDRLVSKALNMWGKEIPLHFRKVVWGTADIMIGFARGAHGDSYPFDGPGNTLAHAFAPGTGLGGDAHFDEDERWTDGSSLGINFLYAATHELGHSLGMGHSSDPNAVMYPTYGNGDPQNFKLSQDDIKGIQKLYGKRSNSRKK
Procedure: Stromelysin enzymatic activity was measured using a modified version of a resonance energy transfer fluorogenic assay as described in FEBS, vol. 296(3), p. 263 (1992), the disclosure of which is incorporated herein by reference. The MCA-peptide substrate is shown below. The fluorescent MCA group is quenched by resonance energy transfer to the 2,4-dinitrophenyl group. Matrix metalloproteinases cleave this substrate at the Gly-Leu bond. Cleavage results in the loss of energy transfer and a large increase in fluorescence of the MCA group. [drawing 56] 7-methoxycoumarin-4-yl-acetyl-pro-leu-gly-leu-3-(2,4-dinitrophenyl)-L-2,3-diaminoproprionyl-ala-arg-NH2
The MCA assay was performed at 37° C. in buffer containing 50 mM Tricine (pH 7.5), 10 mM CaCl2, 200 mM NaCl, and 1% DMSO with the following concentrations of matrix metalloproteinases: 1.4 nM stromelyin, 0.063 nM matrilysin, and 0.030 nM gelatinase A. The concentration of MCA substrate was 10 or 20 μM in a final volume of 1.6 mL. Fluorescence data was collected with Perkin-Elmer LS-5B and LS-5B spectrofluorimeters with λexcitation=328 nm and λemission=393 nm. Spectrofluorimeters were interfaced with IBM-compatible microcomputer systems.
The Km for the MCA peptide substrate with the matrix metalloproteinases is quite high and exceeds its solubility under assay conditions. Consequently, the apparent Ki (Ki,app) was determined to describe the strength of inhibition. However, in this case, Ki,app would be essentially equal to Ki since [S]<<Km. For the determination of Ki,app, the concentration of the inhibitor was varied at a constant and low concentration of substrate and the steady-state rates of fluorescence change determined. In most cases absorptive quench due to the presence of ligand was not observed. For slow-binding inhibitors, onset of inhibition curves were collected for at least 45 minutes so that equilibrium was established. Steady-state rates of fluorescence change were obtained by fitting a curve to an equation for a single exponential decay containing a linear phase. The fitted value of the linear phase was taken as the steady-state rate. The steady-state rates were fitted to the Michaelis equation describing competitive inhibition by non-linear methods. Data resulting from tight-binding inhibition was analyzed, and Ki,app determined by fitting the data to the tight-binding equation of Morrison See (Biochem. Biophys. Acta, vol. 185, pp. 269-286 (1969)) by non-linear methods.

[1] = tested on: bovine nasal cartilage plugs; test: Arthritis model: implanted bovine nasal cartilage plugs in sponges impregnated with Mycobacterium tuberculosis; format: in vivo, female Lewis rats; conditions: p < 0.01; for weight loss % inhibition: cartilage plug weight; for hydroxyproline % protection: hydroxyproline content of plugs
Procedure: Previously frozen bovine nasal cartilage plugs weighing approximately 20 mg were embedded in polyvinyl sponges impregnated with Mycobacterium tuberculosis and implanted subcutaneously in female Lewis rats. Dosing was begun 9 days after implantation and the plugs were harvested about one week later. The plugs were weighed and then hydrolyzed and the hydroxyproline content measured. Efficaciousness was determined by the comparison of the compound-treated groups with vehicle-treated controls.

HFC = target: T3, HFC (Homo sapiens, UniProt P03956); test: MCA fluorogenic enzyme assay, competitive inhibition analysis (Ki,app), HFC; format: biochemical; conditions: MCA peptide substrate, 37° C., pH 7.5, read-out: Enzyme Inhibition Constants (K1) HFC
T3 sequence (P03956 100-469): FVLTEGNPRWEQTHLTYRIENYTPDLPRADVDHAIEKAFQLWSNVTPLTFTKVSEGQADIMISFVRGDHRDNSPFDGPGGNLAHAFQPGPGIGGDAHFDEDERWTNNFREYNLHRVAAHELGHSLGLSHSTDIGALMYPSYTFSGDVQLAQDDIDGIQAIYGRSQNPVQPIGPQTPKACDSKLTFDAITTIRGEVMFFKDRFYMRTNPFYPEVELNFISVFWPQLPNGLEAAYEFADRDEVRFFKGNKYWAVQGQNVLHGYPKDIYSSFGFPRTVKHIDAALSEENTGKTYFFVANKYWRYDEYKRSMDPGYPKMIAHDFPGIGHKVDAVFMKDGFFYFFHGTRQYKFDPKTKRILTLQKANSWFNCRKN

stromelysin (HSLN) = stromelysin (HSLN) (Homo sapiens, UniProt P08254); test: MCA fluorogenic enzyme assay, competitive inhibition analysis (Ki,app), stromelysin; format: biochemical; conditions: Ki,app; MCA peptide substrate, 37° C., pH 7.5; read-out: Enzyme Inhibition Constants (K1) HSLN
Chain of stromelysin (HSLN) (P08254 100-477): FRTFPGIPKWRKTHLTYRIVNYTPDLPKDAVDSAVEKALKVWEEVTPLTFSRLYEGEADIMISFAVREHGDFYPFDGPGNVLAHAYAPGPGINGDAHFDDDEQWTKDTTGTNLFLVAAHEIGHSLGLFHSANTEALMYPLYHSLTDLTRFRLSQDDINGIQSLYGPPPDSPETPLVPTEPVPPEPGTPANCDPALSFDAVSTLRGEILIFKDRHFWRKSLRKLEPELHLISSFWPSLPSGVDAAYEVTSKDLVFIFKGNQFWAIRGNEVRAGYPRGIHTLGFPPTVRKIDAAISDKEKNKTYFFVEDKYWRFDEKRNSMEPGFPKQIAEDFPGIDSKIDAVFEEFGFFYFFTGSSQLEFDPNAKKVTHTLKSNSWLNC

[2] = tested on: murine Lewis lung carcinoma (NIH) tumor line; test: Tumor model: subcutaneous Lewis lung carcinoma, primary tumor growth and lung metastases; format: in vivo, female BDF1 mice; conditions: 50 mg/kg, i.p., daily, Day 1-Day 21; for Tumor Growth Delay: delay in reaching 1000 mm^3 tumor volume between control and treated animals; for % Inhibition-Lung Metastases: metastases counted 22 days after tumor implantation
Text: Primary subcutaneous tumors were established in female BDF1 mice by trocar inoculation of the murine Lewis lung carcinoma (NIH) tumor line. This tumor line produces spontaneous lung metastases which arise from the primary tumor. Primary tumor growth was monitored by measuring the length and width of the subcutaneous tumor using calipers; lung metastases were counted at the end of the experiment (22 days after tumor implantation) by removing the lungs and counting the lesions using a dissecting microscope. The test compound was administered daily, i.p., beginning 24 hours after tumor implantation (day 1) and continuing through day 21. Primary tumor volumes and number of lung metastases were compared to control animals using an ANOVA followed by a comparison of means using the F statistic. […] All drugs were administered at 50 mg/kg, i.p., daily, Day 1-Day 21.

Compound | Ki (gelatinase A (HG72kD)) | Ki (Coll3) | Ki (matrilysin (Matr.)) | weight loss % inhibition ([1]; dose p.o. 25 mg/kg/day) | Ki (HFC) | Ki (stromelysin (HSLN)) | melting point | weight loss % inhibition ([1]; dose p.o. 10 mg/kg/day) | hydroxyproline % protection ([1]; dose p.o. 10 mg/kg/day) | Tumor Growth Delay [2] | % Inhibition-Lung Metastases [2]
CC1(C)SCCN(S(=O)(=O)c2ccc(Oc3ccc(-n4ccnc4)cc3)cc2)[C@H]1C(=O)NO [3(a), 3(S)-N-hydroxy-4-(4-(4-(imidazol-1-yl)phenoxy)benzenesulfonyl)-2,2-dimethyl-tetrahydro-2H-1,4-thiazine-3-carboxamide] | 11 pM | 17 pM | 5000 pM | 97.5% | 15000 pM | 250 pM | – | – | – | – | –
CC1(C)C(C(=O)NO)N(S(=O)(=O)c2ccc(Oc3ccc(Cl)cc3)cc2)CC[S+]1[O-] [Example 19(b), 1(R), 3(S)-N-hydroxy-4-(4-(4-chlorophenoxy)benzenesulfonyl)-2,2-dimethyl-1-oxo-tetrahydro-2H-1,4-thiazine-3-carboxamide] | 18 pM | – | – | – | – | 2500 pM | 145 to 147 °C | – | – | – | –
CCOC(=O)CN1CCN(S(=O)(=O)c2ccc(Oc3ccc(Cl)cc3)cc2)[C@@H](C(=O)NO)C1 (as salt: hydrochloride) [Example 11(c), 2(R)-N-hydroxy-1-(4-(4-chlorophenoxy)benzenesulfonyl)-4-(ethoxycarbonylmethyl)-piperazine-2-carboxamide hydrochloride] | – | – | – | – | – | – | 163.7 °C | – | – | – | –
Cc1ccc(Oc2ccc(S(=O)(=O)Cl)cc2)cc1 [2(b), 4-(4-Methylphenoxy)benzenesulfonyl chloride] | – | – | – | 81.1% | – | – | 295 to 300 °C | – | – | – | –
Cl.O=C(NO)C1CNCCN1S(=O)(=O)c1ccc(Oc2ccc(Br)cc2)cc1 (racemic) [5(a), 2(R/S)-N-hydroxy-1(4-(4-bromophenoxy)benzenesulfonyl)-piperazine-2-carboxamide hydrochloride] | 770 pM | 1100 pM | 263000 pM | – | 68000 pM | 1800 pM | – | 59.6% | 72.5% | 2.0 days | 13.6%
O=C(NO)C1CNCCN1S(=O)(=O)c1ccc(Oc2ccccc2)cc1 (racemic) [Example 5(b), 2(R/S)-N-hydroxy-1-(4-phenoxybenzenesulfonyl)-piperazine-2-carboxamide] | 864 pM | – | 560000 pM | – | – | 6200 pM | 160.4 °C | – | – | – | –
CC(C)(C)OC(=O)N1CCN(S(=O)(=O)c2ccc(Oc3ccc(Br)cc3)cc2)C(C(=O)NO)C1 (racemic) [Example 4, 2(R/S)-N-hydroxy-1-(4-(4-bromophenoxy)benzenesulfonyl)-4-(t-butoxycarbonyl)-piperazine-2-carboxamide] | 25 pM | 70 pM | 378000 pM | – | 60000 pM | 730 pM | 112.4 °C | – | – | – | –
CC(=O)N1CCN(S(=O)(=O)c2ccc(Oc3ccccc3)cc2)C(C(=O)NO)C1 (racemic) [7(a), 2(R/S)-N-hydroxy-1-(4-phenoxybenzenesulfonyl)-4-acetyl-piperazine-2-carboxamide] | 110 pM | 50 pM | 113000 pM | – | – | 640 pM | – | 77.4% | 86.7% | 0.0 days | 16.1%
